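How tested: cells in 96-well plates exposed to compound for 48 hours at five concentrations. GI50: concentration for 50% inhibition of growth.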 Activity calls are given as the source filed them. Cut-off read from the data, not from the text of the source: active = GI50 up to about 1.1 µM and inactive = higher.
Columns and labels:
Experiment in all cases: NCI anticancer screen, dose series, 48 h
786-0 = test system: 786-0
A498 = test system: A498
A549 = test system: A549
ACHN = test system: ACHN
BT-549 = test system: BT-549
CAKI-1 = test system: CAKI-1
DU-145 = test system: DU-145
EKVX = test system: EKVX
HCT-116 = test system: HCT-116
HCT-15 = test system: HCT-15
HL-60 = test system: HL-60
HOP-62 = test system: HOP-62
HOP-92 = test system: HOP-92
HT-29 = test system: HT-29
IGROV-1 = test system: IGROV-1
K562 = test system: K562
LOX IMVI = test system: LOX IMVI
M14 = test system: M14
MDA-MB-231 = test system: MDA-MB-231
MDA-MB-435 = test system: MDA-MB-435
MDA-N = test system: MDA-N
MOLT-4 = test system: MOLT-4
Malme-3M = test system: Malme-3M
NCI-H226 = test system: NCI-H226
NCI-H23 = test system: NCI-H23
NCI-H460 = test system: NCI-H460
NCI-H522 = test system: NCI-H522
NCI/ADR-RES = test system: NCI/ADR-RES
OVCAR-3 = test system: OVCAR-3
OVCAR-4 = test system: OVCAR-4
OVCAR-5 = test system: OVCAR-5
OVCAR-8 = test system: OVCAR-8
PC-3 = test system: PC-3
RXF 393 = test system: RXF 393
SF-268 = test system: SF-268
SF-295 = test system: SF-295
SK-MEL-28 = test system: SK-MEL-28
SK-MEL-2 = test system: SK-MEL-2
SK-MEL-5 = test system: SK-MEL-5
SN12C = test system: SN12C
SNB-19 = test system: SNB-19
SNB-75 = test system: SNB-75
SR = test system: SR
SW-620 = test system: SW-620
T47D = test system: T47D
TK-10 = test system: TK-10
U-251 = test system: U-251
UACC-257 = test system: UACC-257
UACC-62 = test system: UACC-62
UO-31 = test system: UO-31
CCRF-CEM = test system: CCRF-CEM
COLO 205 = test system: COLO 205
HCC 2998 = test system: HCC 2998
KM12 = test system: KM12
MCF7 = test system: MCF7
RPMI-8226 = test system: RPMI-8226
SF-539 = test system: SF-539

COC(=O)c1cc(O)nc(O)n1
GI50 (786-0): > 100 µM (inactive)
GI50 (A498): > 100 µM (inactive)
GI50 (A549): > 100 µM (inactive)
GI50 (ACHN): > 100 µM (inactive)
GI50 (BT-549): > 100 µM (inactive)
GI50 (CAKI-1): > 100 µM (inactive)
GI50 (DU-145): > 100 µM (inactive)
GI50 (EKVX): > 100 µM (inactive)
GI50 (HCT-116): > 100 µM (inactive)
GI50 (HCT-15): > 100 µM
GI50 (HL-60): > 100 µM (inactive)
GI50 (HOP-62): > 100 µM (inactive)
GI50 (HOP-92): > 100 µM (inactive)
GI50 (HT-29): > 100 µM (inactive)
GI50 (IGROV-1): > 100 µM (inactive)
GI50 (K562): > 100 µM (inactive)
GI50 (LOX IMVI): > 100 µM (inactive)
GI50 (M14): > 100 µM (inactive)
GI50 (MDA-MB-231): > 100 µM (inactive)
GI50 (MDA-MB-435): > 100 µM (inactive)
GI50 (MDA-N): > 100 µM (inactive)
GI50 (MOLT-4): > 100 µM (inactive)
GI50 (Malme-3M): > 100 µM (inactive)
GI50 (NCI-H226): > 100 µM (inactive)
GI50 (NCI-H23): > 100 µM (inactive)
GI50 (NCI-H460): > 100 µM (inactive)
GI50 (NCI-H522): > 100 µM (inactive)
GI50 (NCI/ADR-RES): > 100 µM (inactive)
GI50 (OVCAR-3): > 100 µM (inactive)
GI50 (OVCAR-4): > 100 µM (inactive)
GI50 (OVCAR-5): > 100 µM (inactive)
GI50 (OVCAR-8): > 100 µM (inactive)
GI50 (PC-3): > 100 µM (inactive)
GI50 (RXF 393): > 100 µM (inactive)
GI50 (SF-268): > 100 µM (inactive)
GI50 (SF-295): > 100 µM (inactive)
GI50 (SK-MEL-28): > 100 µM (inactive)
GI50 (SK-MEL-2): > 100 µM (inactive)
GI50 (SK-MEL-5): > 100 µM (inactive)
GI50 (SN12C): > 100 µM (inactive)
GI50 (SNB-19): > 100 µM (inactive)
GI50 (SNB-75): > 100 µM (inactive)
GI50 (SR): > 100 µM (inactive)
GI50 (SW-620): > 100 µM (inactive)
GI50 (T47D): > 100 µM (inactive)
GI50 (TK-10): > 100 µM (inactive)
GI50 (U-251): > 100 µM (inactive)
GI50 (UACC-257): > 100 µM (inactive)
GI50 (UACC-62): > 100 µM (inactive)
GI50 (UO-31): > 100 µM (inactive)

CC1(C)OC2[C@@H](CO[C@@]3([C@@H](O)CCO)OC(C)(C)O[C@@H]23)O1 (some centres undefined)
GI50 (786-0): > 100 µM (inactive)
GI50 (ACHN): > 100 µM (inactive)
GI50 (BT-549): > 100 µM (inactive)
GI50 (CAKI-1): > 100 µM (inactive)
GI50 (CCRF-CEM): > 100 µM (inactive)
GI50 (COLO 205): > 100 µM (inactive)
GI50 (DU-145): > 100 µM (inactive)
GI50 (EKVX): > 100 µM (inactive)
GI50 (HCC 2998): > 100 µM (inactive)
GI50 (HCT-116): > 100 µM (inactive)
GI50 (HCT-15): > 100 µM
GI50 (HL-60): > 100 µM (inactive)
GI50 (HOP-62): > 100 µM (inactive)
GI50 (HOP-92): > 100 µM (inactive)
GI50 (HT-29): > 100 µM (inactive)
GI50 (IGROV-1): > 100 µM (inactive)
GI50 (K562): > 100 µM (inactive)
GI50 (KM12): > 100 µM (inactive)
GI50 (LOX IMVI): > 100 µM (inactive)
GI50 (M14): > 100 µM (inactive)
GI50 (MCF7): > 100 µM (inactive)
GI50 (MDA-MB-231): > 100 µM (inactive)
GI50 (MDA-MB-435): > 100 µM (inactive)
GI50 (MDA-N): > 100 µM (inactive)
GI50 (MOLT-4): > 100 µM (inactive)
GI50 (NCI-H226): > 100 µM (inactive)
GI50 (NCI-H23): > 100 µM (inactive)
GI50 (NCI-H460): > 100 µM (inactive)
GI50 (NCI-H522): > 100 µM (inactive)
GI50 (NCI/ADR-RES): > 100 µM (inactive)
GI50 (OVCAR-3): > 100 µM (inactive)
GI50 (OVCAR-4): > 100 µM (inactive)
GI50 (OVCAR-5): > 100 µM (inactive)
GI50 (OVCAR-8): > 100 µM (inactive)
GI50 (PC-3): > 100 µM (inactive)
GI50 (RPMI-8226): > 100 µM (inactive)
GI50 (RXF 393): > 100 µM (inactive)
GI50 (SF-268): > 100 µM (inactive)
GI50 (SF-295): > 100 µM (inactive)
GI50 (SF-539): > 100 µM (inactive)
GI50 (SK-MEL-28): > 100 µM (inactive)
GI50 (SK-MEL-2): > 100 µM (inactive)
GI50 (SK-MEL-5): > 100 µM (inactive)
GI50 (SN12C): > 100 µM (inactive)
GI50 (SNB-19): > 100 µM (inactive)
GI50 (SNB-75): > 100 µM (inactive)
GI50 (SR): > 100 µM (inactive)
GI50 (SW-620): > 100 µM (inactive)
GI50 (T47D): > 100 µM (inactive)
GI50 (TK-10): > 100 µM (inactive)
GI50 (U-251): > 100 µM (inactive)
GI50 (UACC-257): > 100 µM (inactive)
GI50 (UACC-62): > 100 µM (inactive)
GI50 (UO-31): > 100 µM (inactive)

From ChEMBL document CHEMBL1201862, “PubChem BioAssay data set” (2004)
